pEC50, pIC50: −log10 of the molar value.
Legend:
[1] = Drug concentration in dog plasma at 3 mg/kg, po measured upto 24 hrs; format: ADME, organism-based, Canis lupus familiaris; conditions: read-out: Ct
[2] = Clearance in rat at 5 mg/kg, po or 1 mg/kg, iv; format: ADME, organism-based; conditions: in vivo
[3] = Clearance in rat at 1 mg/kg, iv; format: ADME, organism-based; conditions: in vivo
[4] = Metabolic stability in human liver microsomes assessed as half-life incubated for 5 to 45 mins in presence of NADPH by LC-MS analysis; format: ADME, Microsome; conditions: time 5-45 min
[5] = Toxicity in rat assessed as increase in heart rate at 30 to 100 mg/kg; format: organism-based; conditions: in vivo, dose 30-100 mg/kg
[6] = Drug concentration in rat plasma at 5 mg/kg, po measured upto 24 hrs; format: ADME, organism-based; conditions: read-out: Ct
[7] = Inhibition of recombinant full length NS3/4A R155K mutant protease in Hepatitis C virus subtype 1a replicon infected in human HuH7 cells preincubated for 3 days followed by substrate addition and measured after 2 hrs by renilla luciferase reporter gene assay; format: cell-based; conditions: Huh-7
[8] = Drug concentration in rat liver at 5 mg/kg, po measured upto 24 hrs; format: ADME, organism-based; conditions: read-out: Ct
[9] = Drug concentration in cynomolgus monkey plasma at 3 mg/kg, po measured upto 24 hrs; format: ADME, organism-based, Macaca fascicularis; conditions: read-out: Ct
[10] = Inhibition of recombinant full length NS3/4A protease in Hepatitis C virus subtype 1b replicon infected in human HuH7 cells preincubated for 3 days followed by substrate addition and measured after 2 hrs by renilla luciferase reporter gene assay; format: cell-based; conditions: Huh-7
[11] = Inhibition of recombinant full length NS3/4A protease in Hepatitis C virus subtype 3a replicon infected in human HuH7 cells preincubated for 3 days followed by substrate addition and measured after 2 hrs by renilla luciferase reporter gene assay; format: cell-based; conditions: Huh-7
[12] = Half-life in dog at 3 mg/kg, po or 1 mg/kg, iv; format: ADME, organism-based, Canis lupus familiaris; conditions: in vivo
[13] = Oral bioavailability in dog at 3 mg/kg; format: ADME, organism-based, Canis lupus familiaris; conditions: in vivo
[14] = Toxicity in rat assessed as histopathological changes in liver at 100 mg/kg; format: organism-based; conditions: in vivo
[15] = Clearance in dog at 3 mg/kg, po or 1 mg/kg, iv; format: ADME, organism-based, Canis lupus familiaris; conditions: in vivo
[16] = Inhibition of recombinant full length NS3/4A D168V mutant protease in Hepatitis C virus subtype 1b replicon infected in human HuH7 cells preincubated for 3 days followed by substrate addition and measured after 2 hrs by renilla luciferase reporter gene assay; format: cell-based; conditions: Huh-7
[17] = AUC (0 to 24 hrs) in rat at 5 mg/kg, po; format: ADME, organism-based; parameters: time < 24 hr, route oral, dose 5 mg/kg; conditions: in vivo
[18] = Ratio of drug concentration in liver to plasma in rat at 5 mg/kg, po measured upto 24 hrs; format: ADME, organism-based; conditions: liver and plasma
[19] = Toxicity in rat assessed as reduction in blood pressure at 30 to 100 mg/kg; format: organism-based; conditions: in vivo, dose 30-100 mg/kg
[20] = Cmax in rat at 5 mg/kg, po; format: ADME, organism-based; parameters: route oral, dose 5 mg/kg; conditions: in vivo
[21] = Clearance in cynomolgus monkey at 3 mg/kg, po or 1 mg/kg, iv; format: ADME, organism-based, Macaca fascicularis; conditions: in vivo
[22] = Inhibition of recombinant full length NS3/4A protease in Hepatitis C virus subtype 2a replicon infected in human HuH7 cells preincubated for 3 days followed by substrate addition and measured after 2 hrs by renilla luciferase reporter gene assay; format: cell-based; conditions: Huh-7
[23] = Oral bioavailability in cynomolgus monkey at 3 mg/kg; format: ADME, organism-based, Macaca fascicularis; conditions: in vivo
[24] = Inhibition of recombinant full length NS3/4A protease in Hepatitis C virus subtype 3a infected in human HuH7 cells using Ac-Asp-Glu-Asp (EDANS)-Glu-Glu-Abu-(COO) Ala-Ser-Lys (DABCYL)-NH2 as substrate by FRET assay; conditions: Huh-7
[25] = AUC in dog at 3 mg/kg, po or 1 mg/kg, iv; format: ADME, organism-based, Canis lupus familiaris; parameters: dose 3 mg/kg; conditions: in vivo
[26] = Half-life in cynomolgus monkey at 3 mg/kg, po or 1 mg/kg, iv; format: ADME, organism-based, Macaca fascicularis; conditions: in vivo
[27] = Oral bioavailability in rat at 5 mg/kg; format: ADME, organism-based; conditions: in vivo
[28] = AUC in rat at 5 mg/kg, po or 1 mg/kg, iv; format: ADME, organism-based; parameters: dose 5 mg/kg; conditions: in vivo
[29] = Half life in rat at 1 mg/kg, iv; format: ADME, organism-based; conditions: in vivo
[30] = Half-life in rat at 5 mg/kg, po or 1 mg/kg, iv; format: ADME, organism-based; conditions: in vivo
[31] = Inhibition of recombinant full length NS3/4A protease in Hepatitis C virus subtype 1a replicon infected in human HuH7 cells preincubated for 3 days followed by substrate addition and measured after 2 hrs by renilla luciferase reporter gene assay; format: cell-based; conditions: Huh-7
[32] = AUC in cynomolgus monkey at 3 mg/kg, po or 1 mg/kg, iv; format: ADME, organism-based, Macaca fascicularis; parameters: dose 3 mg/kg; conditions: in vivo
[33] = Drug concentration in rat liver at 15 mg/kg, po measured upto 24 hrs; format: ADME, organism-based; conditions: read-out: Ct
[34] = Volume of distribution in rat at 15 mg/kg, po or 5 mg/kg, iv; format: ADME, organism-based; conditions: in vivo
[35] = Cmax in rat at 15 mg/kg, po; format: ADME, organism-based; parameters: route oral, dose 15 mg/kg; conditions: in vivo
[36] = Half life in rat at 5 mg/kg, iv; format: ADME, organism-based; conditions: in vivo
[37] = Metabolic stability in rat liver microsomes assessed as parent compound remaining after 10 mins in presence of NADPH by LC-MS analysis; format: ADME, Microsome; conditions: read-out: Stabilty
[38] = Ratio of drug concentration in liver to plasma in rat at 15 mg/kg, po measured upto 24 hrs; format: ADME, organism-based; conditions: liver and plasma
[39] = Oral bioavailability in rat at 15 mg/kg; format: ADME, organism-based; conditions: in vivo
[40] = Clearance in rat at 5 mg/kg, iv; format: ADME, organism-based; conditions: in vivo
[41] = Drug concentration in rat plasma at 15 mg/kg, po measured upto 24 hrs; format: ADME, organism-based; conditions: read-out: Ct
[42] = AUC (0 to 24 hrs) in rat at 15 mg/kg, po; format: ADME, organism-based; parameters: time < 24 hr, route oral, dose 15 mg/kg; conditions: in vivo
CHO = assay: Genotoxicity in Chinese Hamster CHO cells assessed as non clastogenicity by micronucleus assay; format: toxicity, cell-based, Cricetulus griseus
[43] = Cytotoxicity against human MT2 cells assessed as reduction in cell viability; format: cell-based
[44] = Toxicity in rat assessed as clinical effect measured upto 4 days; conditions: in vivo, 96 h, time <=4 day
Cytochrome P450 3A4 [45] = biological target: T1, Cytochrome P450 3A4 (Homo sapiens, UniProt P08684); assay: Inhibition of human CYP3A4 in human pooled liver microsomes at 0.002 to 40 uM in presence of midazolam as substrate preincubated in presence of NADPH followed by addition of substrate by LC-MS/MS analysis; format: ADME; conditions: TDE = time-dependent effect, dose 0.002-40 µM, time <=30 min
Cytochrome P450 3A4 [46] = biological target: T1, Cytochrome P450 3A4; assay: Inhibition of human CYP3A4 in human pooled liver microsomes in presence of midazolam as substrate preincubated for 0 mins in presence of NADPH followed by addition of substrate by LC-MS/MS analysis; format: ADME
Cytochrome P450 3A4 [47] = biological target: T1, Cytochrome P450 3A4; assay: Inhibition of human CYP3A4 in human pooled liver microsomes in presence of testosterone as substrate preincubated for 0 mins in presence of NADPH followed by addition of substrate by LC-MS/MS analysis; format: ADME
Cytochrome P450 3A4 [48] = biological target: T1, Cytochrome P450 3A4; assay: Inhibition of human CYP3A4 in human pooled liver microsomes at 0.002 to 40 uM in presence of testosterone as substrate preincubated in presence of NADPH followed by addition of substrate by LC-MS/MS analysis; format: ADME; conditions: TDE = time-dependent effect, dose 0.002-40 µM, time <=30 min
[49] = Toxicity in rat assessed as effect on cardiovascular system by telemetry; conditions: in vivo
[50] = Genotoxicity in Salmonella typhimurium by AMES test; format: toxicity; conditions: salmonella enterica subsp. enterica serovar typhimurium
Cytochrome P450 3A4 [51] = biological target: T1, Cytochrome P450 3A4; assay: Inhibition of human CYP3A4 in human pooled liver microsomes in presence of testosterone as substrate preincubated for 30 mins in presence of NADPH followed by addition of substrate by LC-MS/MS analysis; format: ADME
Cytochrome P450 3A4 [52] = biological target: T1, Cytochrome P450 3A4; assay: […] of CYP3A4 in human liver microsome in presence of midazolam as substrate preincubated for upto 30 mins in presence of NADPH followed by addition of substrate by LC-MS/MS analysis; format: ADME; conditions: microsomes
Cytochrome P450 3A4 [53] = biological target: T1, Cytochrome P450 3A4; assay: Inhibition of human CYP3A4 in human pooled liver microsomes in presence of midazolam as substrate preincubated for 30 mins in presence of NADPH followed by addition of substrate by LC-MS/MS analysis; format: ADME
[54] = Toxicity in rabbit assessed as effect on cardiovascular system by telemetry; parameters: species or system Oryctolagus cuniculus; conditions: in vivo
[55] = Toxicity in rat assessed as histopathological changes measured upto 4 days; conditions: in vivo, 96 h, time <=4 day
[56] = Cytotoxicity against human Huh-7 cells assessed as reduction in cell viability; format: cell-based

T1 sequence (P08684 whole entry): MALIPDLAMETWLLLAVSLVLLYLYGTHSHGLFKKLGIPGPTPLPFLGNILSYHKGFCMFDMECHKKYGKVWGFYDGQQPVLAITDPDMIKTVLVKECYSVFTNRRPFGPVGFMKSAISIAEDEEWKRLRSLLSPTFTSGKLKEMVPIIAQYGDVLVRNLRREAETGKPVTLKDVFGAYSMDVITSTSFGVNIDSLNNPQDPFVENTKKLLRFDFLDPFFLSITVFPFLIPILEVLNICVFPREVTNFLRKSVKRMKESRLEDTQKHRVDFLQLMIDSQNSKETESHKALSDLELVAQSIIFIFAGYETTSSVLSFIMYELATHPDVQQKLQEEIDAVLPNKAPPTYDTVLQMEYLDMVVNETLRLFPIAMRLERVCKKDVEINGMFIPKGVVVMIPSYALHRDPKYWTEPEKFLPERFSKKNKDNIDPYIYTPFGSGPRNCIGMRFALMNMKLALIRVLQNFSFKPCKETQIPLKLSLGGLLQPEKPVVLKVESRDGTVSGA

Compound	concentration at 24 h [1]	clearance [2]	half-life [4]	concentration at 24 h [6]	pEC50 [7]	concentration at 24 h [8]	pEC50 [10]	pEC50 [11]	half-life [12]	bioavailability [13]	clearance [15]	pEC50 [16]	clearance [21]	pEC50 [22]	bioavailability [23]	pIC50 [24]	AUC [25]	half-life [26]	bioavailability [27]	pEC50 [31]	other results
CC[C@@H]1C[C@H](C)CC/C=C\[C@@H]2C[C@@]2(C(=O)NS(=O)(=O)C2(C)CC2)NC(=O)[C@@H]2C[C@@H](Oc3ncc(OC)c4ccc(F)cc34)CN2C(=O)[C@H]1NC(=O)OC(C)(C)C(F)(F)F	709 nM	1.2 mL/min/kg	0.717 h	422 nM	8.12	2070 nM	9.22	7.82	11.3 h	67%	0.6 mL/min/kg	8.05	5.5 mL/min/kg	8.70	28%	8.08	71 µM·h	2.8 h	47%	8.64	clearance [3]: 1.2 mL/min/kg; Activity [5]: Toxic; concentration at 24 h [9]: 13 nM; Activity [14]: Non-Toxic; AUC(0-t) at 24 h [17]: 32.5 µM·h; Kp at 24 h [18]: 5; Activity [19]: Toxic; Cmax [20]: 3610 nM; AUC [28]: 37 µM·h; half-life [29]: 7.9 h; half-life [30]: 7.9 h; AUC [32]: 2.9 µM·h
COc1cnc(O[C@@H]2C[C@H]3C(=O)N[C@]4(C(=O)NS(=O)(=O)C5CC5)C[C@H]4/C=C\CC[C@@H](C)C[C@@H](C)[C@H](NC(=O)OC(C)(C)C(F)(F)F)C(=O)N3C2)c2ccccc12			0.198 h		8.66		9.30	8.70				8.26		9.10		9.05				9.30	concentration at 24 h [33]: 480 nM; Vd [34]: 0.58 L/kg; Cmax [35]: 1780 nM; half-life [36]: 2.7 h; remaining at 10 min [37]: 95%; Kp at 24 h [38]: 34; bioavailability [39]: 15%; clearance [40]: 4.2 mL/min/kg; concentration at 24 h [41]: 14 nM; AUC(0-t) at 24 h [42]: 11.7 µM·h
[2H]C([2H])([2H])Oc1cc2ccnc(O[C@@H]3C[C@H]4C(=O)N[C@]5(C(=O)NS(=O)(=O)C6(C)CC6)C[C@H]5/C=C\CC[C@@H](C)C[C@@H](CC)[C@H](NC(=O)OC(C)(C)C(F)(F)F)C(=O)N4C3)c2cc1F	163 nM	0.18 mL/min/kg	0.55 h	3850 nM	8.10	4160 nM	9.15	7.92	8.7 h	71%	1.1 mL/min/kg	8.24	12.1 mL/min/kg	9.00	23.9%	8.32	39.8 µM·h	1.2 h	57%	8.64	Activity (CHO): Non-Toxic; CC50 [43]: 34000 nM; Activity [44]: Non-Toxic; inhibition (INH) (Cytochrome P450 3A4 [45]): Tde; pIC50 (Cytochrome P450 3A4 [46]): < 4.40; pIC50 (Cytochrome P450 3A4 [47]): < 4.40; inhibition (INH) (Cytochrome P450 3A4 [48]): Tde; Activity [49]: Non-Toxic; Activity [50]: Non-Toxic; pIC50 (Cytochrome P450 3A4 [51]): < 4.48; Activity (Cytochrome P450 3A4 [52]): Not Active; pIC50 (Cytochrome P450 3A4 [53]): 4.79; Activity [54]: Non-Toxic; AUC [28]: 310 µM·h; Activity [55]: Non-Toxic; CC50 [56]: 25000 nM; half-life [30]: 13.4 h; AUC [32]: 0.19 µM·h
